These results are taken from ChEMBL document CHEMBL5725871, “Indanylaminopyridylcyclopropanecarboxylic acids, pharmaceutical compositions and uses thereof” (2018).

Structures are written as SMILES. pIC50: −log10 of the molar value.

Data set [1] addresses T1, Cytochrome P450 2C8 (Homo sapiens, UniProt P10632).
T1 sequence (P10632 whole entry): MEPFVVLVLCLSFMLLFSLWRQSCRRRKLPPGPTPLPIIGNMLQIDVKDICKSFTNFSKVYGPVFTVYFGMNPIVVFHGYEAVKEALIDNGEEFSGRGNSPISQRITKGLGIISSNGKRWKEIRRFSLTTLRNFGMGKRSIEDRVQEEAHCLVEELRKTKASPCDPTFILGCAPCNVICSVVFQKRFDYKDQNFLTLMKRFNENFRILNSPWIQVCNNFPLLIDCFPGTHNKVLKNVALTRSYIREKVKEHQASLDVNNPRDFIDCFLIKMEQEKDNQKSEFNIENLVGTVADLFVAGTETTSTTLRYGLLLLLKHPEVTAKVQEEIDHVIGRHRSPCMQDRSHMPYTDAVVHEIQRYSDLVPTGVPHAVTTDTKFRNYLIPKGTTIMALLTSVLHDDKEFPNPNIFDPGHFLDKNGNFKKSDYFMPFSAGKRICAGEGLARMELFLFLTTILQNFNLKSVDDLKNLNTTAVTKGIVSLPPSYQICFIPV
Nature of the data set: (§1) All assays are carried out on a robotic system in 96 well plates. The final incubation volume contains TRIS buffer (0.1 M), MgCl2 (5 mM), human liver microsomes (0.05 mg/mL), amodiaquine (1 μM) and the test compound at five different concentrations or no compound (high control) in duplicate (e.g. highest concentration 10-50 μM with subsequent serial 1:4 dilutions). Following a short preincubation period, reactions are started with the cofactor (NADPH, 1 mM) and stopped by cooling the incubation down to 8° C. and subsequently by addition of one volume of acetonitrile. An internal standard solution¿the stable isotope d5-desethylamodiaquine is added after quenching of incubations. Peak area analyte (=metabolite formed) and internal standard is determined by LC-MS/MS. The resulting peak area ratio analyte to internal standard in these incubations is compared to a control activity containing no test compound. Within each of the assay runs, the IC50 of a positive control inhibitor (Montelukast) is determined.

For data set [2], the target named is Cytochrome P450 2C9 (Homo sapiens, UniProt P11712). The description is as §1, with “(0.1” for “(0.05”, “diclofenac (10” for “amodiaquine (1”, “(e.g.,” for “(e.g.”, “solution the” for “solution¿the”, “13C6-hydroxydiclofenac” for “d5-desethylamodiaquine”, “(sulfaphenazole)” for “(Montelukast)”.
Sequence of Cytochrome P450 2C9 (P11712 whole entry): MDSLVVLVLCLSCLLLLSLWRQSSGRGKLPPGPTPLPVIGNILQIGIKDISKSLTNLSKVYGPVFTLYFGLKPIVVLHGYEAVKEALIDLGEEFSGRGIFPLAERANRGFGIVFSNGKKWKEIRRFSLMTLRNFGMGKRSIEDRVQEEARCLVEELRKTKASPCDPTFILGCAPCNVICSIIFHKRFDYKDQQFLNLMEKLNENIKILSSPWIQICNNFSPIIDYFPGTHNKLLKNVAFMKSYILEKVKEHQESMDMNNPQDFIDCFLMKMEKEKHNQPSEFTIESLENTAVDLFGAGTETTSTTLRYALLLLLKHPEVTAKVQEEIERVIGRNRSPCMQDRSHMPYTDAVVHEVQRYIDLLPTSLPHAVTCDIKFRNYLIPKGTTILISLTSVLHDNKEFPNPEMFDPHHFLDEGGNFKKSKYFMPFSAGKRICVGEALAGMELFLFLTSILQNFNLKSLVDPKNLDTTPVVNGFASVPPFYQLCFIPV

`Cc1cc(C(=O)NCC(C)(C)O)cc(C)c1-c1ccc(F)c2c1CC[C@H]2Nc1ccc([C@H]2C[C@@H]2C(=O)O)nc1`: the pIC50 in data set [1] is 5.00; in data set [2] it was 4.51.

As for `Cc1cccc(C)c1-c1ccc(F)c2c1CC[C@H]2Nc1ccc([C@H]2C[C@@H]2C(=O)O)nc1`, the pIC50 is 5.30 in data set [1] and 5.15 in data set [2].

In the case of `Cc1c(C#N)cccc1-c1ccc(F)c2c1CC[C@H]2Nc1ccc([C@H]2C[C@@H]2C(=O)O)nc1`, the values for the pIC50 in data set [1] and in data set [2] were 5.05 and 5.00, respectively.

The term pIC50 denotes the negative decadic logarithm of the IC50, by convention in mol/L.
